From patent US20260176250A1, “TRIAZINONE DERIVATIVES AS NLRP3 INHIBITORS” (Hoffmann-La Roche Inc., priority 2022, published 2026)

How the values were obtained:
[1] = target: T1, NLRP3 (Homo sapiens, UniProt Q96P20); experiment: THP-1 cells pyroptosis assay; type: cell-based; conditions: LPS 1 μg/ml, nigericin 5 μM, resazurin readout
Procedure: THP-1 cells (ATCC #TIB-202) were grown in RPMI containing L-glutamine (Gibco #11835) supplemented with 1 mM sodium pyruvate (Sigma #S8636) and penicillin (100 units/ml)/streptomycin (0.1 mg/ml) (Sigma #P4333) in 10% Fetal Bovine Serum (FBS) (Sigma #F0804). The cells were routinely passaged and grown to confluency (˜10^6 cells/ml). On the day of the experiment, THP-1 cells were harvested and resuspended into RPMI medium (without FBS). The cells were then counted and viability (>90%) checked by Trypan blue (Sigma #T8154). Appropriate dilutions were made to give a concentration of 625,000 cells/ml. To this diluted cell solution was added LPS (Sigma #L4524) to give a 1 μg/ml Final Assay Concentration (FAC). 40 μl of the final preparation was aliquoted into each well of a 96-well plate. The plate thus prepared was used for compound screening.
The following method step-by-step assay was followed for compound screening. • 1. Seed THP-1 cells (25,000 cells/well) containing 1.0 μg/ml LPS in 40 μl of RPMI medium (without FBS) in 96-well, black walled, clear bottom cell culture plates coated with poly-D-lysine (VWR #734-0317) • 2. Add 5 μl compound (8 points half-log dilution, with 10 μM top dose) or vehicle (DMSO 0.1% FAC) to the appropriate wells • 3. Incubate for 3 hours at 37° C., 5% CO2 • 4. Add 5 μl nigericin (Sigma #N7143) (FAC 5 μM) to all wells • 5. Incubate for 1 hr at 37° C., 5% CO2 • 6. At the end of the incubation period, spin plates at 300xg for 3 mins and remove supernatant • 7. Then add 50 μl of resazurin (Sigma #R7017) (FAC 100 μM resazurin in RPMI medium without FBS) and incubate plates for a further 1-2 hours at 37° C. and 5% CO2 • 8. Plates were read in an Envision reader at Ex 560 nm and Em 590 nm • 9. IC50 data is fitted to a non-linear regression equation (log inhibitor vs response-variable slope 4-parameters)

[2] = target: T1, NLRP3; experiment: Human whole blood IL-1β release assay; type: cell-based; set-up: Human whole blood in Li-heparin tubes was obtained from healthy donors; from tissue; host or cells: human whole blood from healthy donors; conditions: LPS 1 μg/ml, nigericin 10 μM, IL-1β AlphaLisa, read-out: Human whole blood IL-1ß Assay IC50
Procedure: For systemic delivery, the ability to inhibit NLRP3 when the compounds are present within the bloodstream is of great importance. For this reason, the NLRP3 inhibitory activity of a number of compounds in human whole blood was investigated in accordance with the following protocol.
Human whole blood in Li-heparin tubes was obtained from healthy donors from a volunteer donor panel. • 1. Plate out 80 μl of whole blood containing 1 μg/ml of LPS in 96-well, clear bottom cell culture plate (Corning #3585) • 2. Add 10 μl compound (8 points half-log dilution with 10 μM top dose) or vehicle (DMSO 0.1% FAC) to the appropriate wells • 3. Incubate for 3 hours at 37° C., 5% CO2 • 4. Add 10 μl nigericin (Sigma #N7143) (10 μM FAC) to all wells • 5. Incubate for 1 hr at 37° C., 5% CO2 • 6. At the end of the incubation period, spin plates at 300xg for 5 mins to pellet cells and remove 20 μl of supernatant and add to 96-well v-bottom plates for IL-1β analysis (note: these plates containing the supernatants can be stored at −80° C. to be analysed at a later date) • 7. IL-1β was measured according to the manufacturer protocol (Perkin Elmer-AlphaLisa IL-1 Kit AL220F-5000) • 8. IC50 data is fitted to a non-linear regression equation (log inhibitor vs response-variable slope 4-parameters)

[3] = target: T2, hERG cardiac potassium channel (Homo sapiens, UniProt Q12809); experiment: hERG screening assay (automated patch clamp, CHO-hERG cells); type: cell-based; conditions: CHO crelox hERG cell line (CHO cells that express hERG), whole-cell patch clamp, 35-37° C.
T2 construct: host or cells: CHO crelox hERG cell line (Chinese hamster cells)
Text: In the drug development process of small molecules, one of the most frequent adverse side effects, leading to the failure of drugs, is the cardiac arrhythmias. Such failure is often related to the capacity of the drug to inhibit the human ether-à-go-go-related gene (hERG) cardiac potassium channel. Having no or low inhibition of the hERG cardiac potassium channel is therefore considered as beneficial.
The CHO crelox hERG cell line (ATCC reference Nr. PTA-6812, female Chinese hamster cells) was generated and validated at Roche. Ready-to-use frozen instant CHO-hERG cells were cryopreserved at Evotec (Germany) and used directly in the experiments.
The extracellular solution contains (in mM): NaCl 150; KCl 4; CaCl2) 1; MgCl2 1; HEPES 10; pH 7.2-7.4 with NaOH, osmolarity 290-330 mOsm. […]
The effects of a compound on hERG K+-currents parameters will be evaluated at 2 concentrations in at least 4 cells.
The hERG test is performed using automated patch clamp system SynchroPatch® 384 (Nanion Technologies GmbH, Germany). K+ currents are measured with the patch-voltage-clamp technique in the whole-cell configuration at 35-37° C. […]
The amplitudes of IKhERG were recorded in each concentration of drug and they were compared to the vehicle control values (taken as 100%) to define fractional blocks. […]

[4] = Metabolic stability in human hepatocytes; type: in vitro ADME
Procedure: Biological materials. Cryopreserved hepatocytes [mouse, rat, rabbit, monkey and human (male and female; mixed)] are obtained. Viability of hepatocytes after reconstitution is at least 80% throughout the study. Ready-to-use rat/human HepatoPac® cultures [long-term hepatocyte co-cultures; pooled (n=5 for male and n=5 for female for human)] with stromal mouse fibroblasts (negative control; pooled) with the plates for incubations, application medium and maintenance medium are acquired.
Metabolism by suspended hepatocytes. Primary pooled cryopreserved hepatocytes are reconstituted in pre-warmed William's E media containing 10% FCS, 0.05 mg/mL streptomycin and 50 U/mL penicillin and 0.4 mM L-glutamine; and 0.01 mg/mL gentamicin, 0.048 mg/mL hydrocortisone and 0.004 mg/mL insulin, to a final suspension density of 1×10^6 cells/mL. The incubation was performed fully automatically with Liquid Handling System (Tecan) equipped with a CO2 incubator with an orbital shaker. After the addition of a test compound at e.g. 1 μM to the wells (1×10^5 cells/well), the 96-well hepatocyte suspension culture plates are incubated in a 5% CO2 at 37° C. Samples are quenched by addition of acetonitrile (including an internal standard) to the incubation well at the designated time points up to 2 h.
Metabolism by HepatoPac®. […]
Samples are then centrifuged appropriately and the supernatant analyzed by LC-MS/MS. […]

T1 sequence (Q96P20 whole entry): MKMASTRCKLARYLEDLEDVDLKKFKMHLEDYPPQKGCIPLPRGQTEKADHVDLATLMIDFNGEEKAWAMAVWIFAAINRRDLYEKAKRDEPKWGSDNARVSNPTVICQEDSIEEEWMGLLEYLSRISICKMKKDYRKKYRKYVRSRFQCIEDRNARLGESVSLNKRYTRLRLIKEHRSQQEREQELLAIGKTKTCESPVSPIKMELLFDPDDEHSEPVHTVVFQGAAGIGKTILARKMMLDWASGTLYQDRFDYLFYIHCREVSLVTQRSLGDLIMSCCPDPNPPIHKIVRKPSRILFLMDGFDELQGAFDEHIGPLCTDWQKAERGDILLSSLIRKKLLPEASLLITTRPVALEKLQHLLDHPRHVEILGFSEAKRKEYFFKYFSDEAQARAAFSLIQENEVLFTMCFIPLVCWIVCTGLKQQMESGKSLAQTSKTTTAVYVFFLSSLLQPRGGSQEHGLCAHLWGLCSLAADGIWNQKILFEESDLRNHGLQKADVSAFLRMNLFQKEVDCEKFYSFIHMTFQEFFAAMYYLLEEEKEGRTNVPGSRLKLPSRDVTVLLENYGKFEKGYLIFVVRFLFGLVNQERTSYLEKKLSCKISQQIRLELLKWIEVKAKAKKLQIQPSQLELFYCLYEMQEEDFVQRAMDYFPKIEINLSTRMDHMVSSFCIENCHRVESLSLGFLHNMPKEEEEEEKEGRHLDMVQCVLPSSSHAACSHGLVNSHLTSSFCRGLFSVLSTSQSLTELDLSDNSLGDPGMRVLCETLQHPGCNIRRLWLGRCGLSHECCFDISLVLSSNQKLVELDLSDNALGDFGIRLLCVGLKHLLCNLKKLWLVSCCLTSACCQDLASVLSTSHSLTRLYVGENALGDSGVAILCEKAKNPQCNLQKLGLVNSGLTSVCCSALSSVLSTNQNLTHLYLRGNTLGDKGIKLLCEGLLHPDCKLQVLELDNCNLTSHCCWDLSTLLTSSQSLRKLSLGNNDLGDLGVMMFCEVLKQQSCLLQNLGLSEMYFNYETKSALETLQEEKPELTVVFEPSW
T2 sequence (Q12809 whole entry): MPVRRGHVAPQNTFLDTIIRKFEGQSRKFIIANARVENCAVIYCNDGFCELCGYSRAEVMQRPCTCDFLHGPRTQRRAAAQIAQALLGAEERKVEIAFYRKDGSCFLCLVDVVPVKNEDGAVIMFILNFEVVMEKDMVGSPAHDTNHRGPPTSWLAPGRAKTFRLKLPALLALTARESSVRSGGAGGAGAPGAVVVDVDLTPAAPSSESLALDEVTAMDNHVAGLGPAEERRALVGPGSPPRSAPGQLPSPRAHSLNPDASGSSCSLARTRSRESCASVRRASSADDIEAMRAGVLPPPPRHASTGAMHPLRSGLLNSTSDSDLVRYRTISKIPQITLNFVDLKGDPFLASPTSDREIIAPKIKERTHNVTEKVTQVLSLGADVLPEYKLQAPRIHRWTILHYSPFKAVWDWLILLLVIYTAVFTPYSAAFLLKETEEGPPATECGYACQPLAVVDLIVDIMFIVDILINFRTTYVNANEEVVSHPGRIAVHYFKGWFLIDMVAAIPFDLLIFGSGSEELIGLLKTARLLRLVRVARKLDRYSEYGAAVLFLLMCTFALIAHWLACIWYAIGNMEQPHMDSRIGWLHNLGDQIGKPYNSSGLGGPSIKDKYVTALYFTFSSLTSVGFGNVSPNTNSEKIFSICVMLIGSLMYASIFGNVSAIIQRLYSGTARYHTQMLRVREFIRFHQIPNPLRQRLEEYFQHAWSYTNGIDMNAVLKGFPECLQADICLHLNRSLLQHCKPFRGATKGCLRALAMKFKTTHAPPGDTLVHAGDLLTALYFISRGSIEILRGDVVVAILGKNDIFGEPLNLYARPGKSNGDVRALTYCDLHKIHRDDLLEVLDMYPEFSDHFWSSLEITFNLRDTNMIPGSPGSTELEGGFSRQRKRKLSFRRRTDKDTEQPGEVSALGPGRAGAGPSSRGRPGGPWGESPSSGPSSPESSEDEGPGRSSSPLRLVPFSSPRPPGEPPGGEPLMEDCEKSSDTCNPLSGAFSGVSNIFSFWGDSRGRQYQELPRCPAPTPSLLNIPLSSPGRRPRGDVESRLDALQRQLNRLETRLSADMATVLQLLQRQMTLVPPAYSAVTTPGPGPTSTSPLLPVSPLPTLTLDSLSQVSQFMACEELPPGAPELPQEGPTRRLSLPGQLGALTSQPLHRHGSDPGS

Structure (SMILES) | IC50 [1] [nM] | IC50 [2] [nM] | IC20 [3] [nM] | Clint at 1 μM [4] [μl/min/10E6 cells]
CCN1CCC[C@@H](Nc2nnc(-c3ccc4c(c3O)CC4)n(C)c2=O)C1 [Example 2] | 5.8 | 10 |  | 
CCN1CCC[C@@H](Nc2nnc(-c3ccc4c(c3O)CCC4)n(C)c2=O)C1 [Example 1, 6-[[(3R)-1-Ethyl-3-piperidyl]amino]-3-(4-hydroxyindan-5-yl)-4-methyl-1,2,4-triazin-5-one] | 1.5 | 8 | > 10000 | <0.2
CCN1CCC[C@@H](N(C)c2nnc(-c3ccc4c(c3O)CCC4)n(C)c2=O)C1 [Example 3, 6-[[(3R)-1-Ethyl-3-piperidyl]-methyl-amino]-3-(4-hydroxyindan-5-yl)-4-methyl-1,2,4-triazin-5-one] | 13 | 26 |  | 
